{
  "source": "patent US20100273876A1",
  "about": "“ANTIBACTERIAL FORMULATION COMPRISING A DIALKYL SULPHOSUCCINATE AND A CARBANILIDE ANTIBACTERIAL AGENT” (priority 2007, published 2010)",
  "key": {"P. acnes PRP-008": {"system": "P. acnes PRP-008", "assay": "(S)DDA disc diffusion", "type": "cell-based, Propionibacterium acnes", "description": "(§1) The propionibacteria were cultured and maintained on Wilkins-Chalgren Anaerobe Medium (agar and broth) at pH 6.0; all cultures were incubated anaerobically at 37° C. for 72 hours.\n(§2) A sterile paper disc was impregnated with a sample of the test compound in a suitable solvent and 30 minutes allowed for the solvents to evaporate (where possible). The disc was then placed on an agar plate onto which the test micro-organism had been inoculated. The plate was then incubated under the conditions described above, following which it was examined visually for signs of microbial growth. If the test compound had antimicrobial activity, a circular zone of no growth would be obtained around the disc. The diameter of this zone of “inhibition” was measured using a ProtoCOL™ automated zone sizer (Synbiosis, Cambridge, UK). In general, a greater diameter and/or area of the zone of inhibition indicates a greater antimicrobial activity in the relevant test compound, although other factors such as test compound mobility through the agar gel may also influence the result.\n(§3) Two test a compounds A and B were placed on a single paper disc and the above described DDA procedure repeated. An increase in diameter of the zone of inhibition, compared to the greater of the zone diameters for the two compounds individually, was taken to indicate potential antimicrobial synergy. In practical terms, an increase of greater than 5 mm could be treated as significant.\n(§4) Both the DDA and the SDDA test may be carried out using an agar gel supplemented with lipid and/or salt to simulate some of the major components present in human skin and to assess whether these substances might reduce the antimicrobial activity observed for the test compound. Performance under these conditions can provide a more reliable indication of activity on topical application. The supplements used in Examples 1, 11, 12 and 13 below were lipid (either Tween™ 80 at 1% v/v (Example 1) or triolein at 1% v/v (Examples 11, 12 and 13) and sodium chloride (100 mM)."}, "P. acnes PRP-039": {"system": "P. acnes PRP-039", "assay": "(S)DDA disc diffusion", "type": "cell-based, Propionibacterium acnes", "conditions": "for DDA: P. acnes PRP-039 (Tet/MLS), 200 μg TCC or 50 μg DOSS per disc", "description": "as §1, §2, §3, §4"}, "P. acnes PRP-046": {"system": "P. acnes PRP-046", "assay": "(S)DDA disc diffusion", "type": "cell-based, Propionibacterium acnes", "description": "as §1, §2, §3, §4"}, "P. acnes PRP-007": {"system": "P. acnes PRP-007", "assay": "(S)DDA disc diffusion", "type": "cell-based, Propionibacterium acnes", "description": "as §1, §2, §3, §4"}, "P. acnes PRP-068": {"system": "P. acnes PRP-068", "assay": "(S)DDA disc diffusion", "type": "cell-based, Propionibacterium acnes", "description": "as §1, §2, §3, §4"}, "P. acnes PRP-002": {"system": "P. acnes PRP-002", "assay": "(S)DDA disc diffusion", "type": "cell-based, Propionibacterium acnes", "description": "as §1, §2, §3, §4"}, "P. acnes PRP-010": {"system": "P. acnes PRP-010", "assay": "(S)DDA disc diffusion", "type": "cell-based, Propionibacterium acnes", "description": "as §1, §2, §3, §4"}, "P. acnes NCTC 737": {"system": "P. acnes NCTC 737", "assay": "Minimum bactericidal concentration (MBC) assay", "type": "cell-based, Propionibacterium acnes", "description": "The propionibacteria were cultured and maintained on Wilkins-Chalgren Anaerobe Medium (agar and broth) at pH 6.0; all cultures were incubated anaerobically at 37° C. for 72 hours. This assay, normally carried out after an MIC assay, determines the rnininiurn concentration of a compound that is lethal to the micro-organism being tested. […] These samples were then individually sub-cultured on antibiotic-free agar medium, under the incubation conditions described above. Following incubation they were examined visually for microbial growth."}, "[1]": {"system": "Clost. difficile ATCC 7000057", "assay": "(S)DDA disc diffusion", "type": "cell-based, Clostridium difficile", "conditions": "200 μg per disc", "description": "as §2\nTwo test a compounds A and B were placed on a single paper disc and the above described DDA procedure repeated. […]\nThe activities of DOSS and TCC were determined, using (S)DDAs, against a panel of further test micro-organisms, namely B. cereus ATCC 11778, Bact. fragilis ATCC 25285, Clost. difficile […] and E. faecalis ATCC 29212. […]"}, "C. xerosis NCTC 11861": {"system": "C. xerosis NCTC 11861", "assay": "(S)DDA disc diffusion", "type": "cell-based, Corynebacterium xerosis", "conditions": "for DDA: 200 μg per disc", "description": "Several Corynebacterium test species were also used in this study, namely C. mucifaciens ATCC 700355, C. striatum NCTC 764, C. xerosis NCTC 11861 and C. jeikeium NCTC 11915. These Gram-positive pathogens are closely related to organisms (aerobic diphtheroids of the genus Corynebacterium) that cause body odour. C. mucifaciens and C. striatum were cultured and maintained on Mueller-Hinton Medium (agar and broth) and were incubated aerobically at 37° C. for 24 hours. C. xerosis and C. jeikeium were cultured and maintained on Mueller-Hinton Medium containing 5% (v/v) lysed horse blood (agar and broth) and were incubated aerobically at 37° C. for 72 hours. A sterile paper disc was impregnated with a sample of the test compound in a suitable solvent and 30 minutes allowed for the solvents to evaporate (where possible). The disc was then placed on an agar plate onto which the test micro-organism had been inoculated. The plate was then incubated under the conditions described above, following which it was examined visually for signs of microbial growth. If the test compound had antimicrobial activity, a circular zone of no growth would be obtained around the disc. The diameter of this zone of “inhibition” was measured using a ProtoCOL™ automated zone sizer (Synbiosis, Cambridge, UK). In general, a greater diameter and/or area of the zone of inhibition indicates a greater antimicrobial activity in the relevant test compound, although other factors such as test compound mobility through the agar gel may also influence the result. Two test a compounds A and B were placed on a single paper disc and the above described DDA procedure repeated. An increase in diameter of the zone of inhibition, compared to the greater of the zone diameters for the two compounds individually, was taken to indicate potential antimicrobial synergy. In practical terms, an increase of greater than 5 mm could be treated as significant. The activities of DOSS and TCC were determined, using (S)DDAs, against the test organisms C. mucifaciens ATCC 700355, C. striatum NCTC 764, C. xerosis NCTC 11861 and C. jeikeium NCTC 11915. 200 μg of the DOSS and/or the TCC were loaded onto each disc. All the experiments were conducted in triplicate."}, "[2]": {"conditions": "P. acnes PRP-008 (Clin), 200 μg TCC or 50 μg DOSS per disc"}, "[3]": {"conditions": "P. acnes PRP-046 (resistance None), 200 μg TCC or 50 μg DOSS per disc"}, "[4]": {"conditions": "P. acnes PRP-007 (Clin), 200 μg TCC or 50 μg DOSS per disc"}, "[5]": {"conditions": "P. acnes PRP-068 (Ery), 200 μg TCC or 50 μg DOSS per disc"}, "[6]": {"conditions": "P. acnes PRP-002 (Tet/MLS), 200 μg TCC or 50 μg DOSS per disc"}, "[7]": {"conditions": "P. acnes PRP-010 (MLSK), 200 μg TCC or 50 μg DOSS per disc"}},
  "note": "Where two headings read alike, the source gives them in different places.",
  "data": [
    {"molecule": "dioctyl sodium sulphosuccinate [DOSS]", "values": [
      {"measurement": "DDA", "setting": "P. acnes PRP-008; [2]", "value": 24.87, "unit": "mm"},
      {"measurement": "DDA", "setting": "P. acnes PRP-008; P. acnes PRP-008, 200 μg per disc", "value": 48.25, "unit": "mm"},
      {"measurement": "DDA + salt", "setting": "P. acnes PRP-008; P. acnes PRP-008, 200 μg per disc, sodium chloride 100 mM", "value": 48.56, "unit": "mm"},
      {"measurement": "DDA + lipid", "setting": "P. acnes PRP-008; P. acnes PRP-008, 200 μg per disc, triolein 1% v/v", "value": 43.58, "unit": "mm"},
      {"measurement": "DDA", "setting": "P. acnes PRP-039", "value": 23.02, "unit": "mm"},
      {"measurement": "DDA + salt", "setting": "P. acnes PRP-039; P. acnes PRP-039, 200 μg per disc, sodium chloride 100 mM", "value": 46.38, "unit": "mm"},
      {"measurement": "DDA", "setting": "P. acnes PRP-046; [3]", "value": 25.08, "unit": "mm"},
      {"measurement": "DDA", "setting": "P. acnes PRP-046; P. acnes PRP-046, 200 μg per disc", "value": 44.51, "unit": "mm"},
      {"measurement": "DDA + salt", "setting": "P. acnes PRP-046; P. acnes PRP-046, 200 μg per disc, sodium chloride 100 mM", "value": 47.00, "unit": "mm"},
      {"measurement": "DDA + lipid", "setting": "P. acnes PRP-046; P. acnes PRP-046, 200 μg per disc, triolein 1% v/v", "value": 41.09, "unit": "mm"},
      {"measurement": "DDA", "setting": "P. acnes PRP-007; [4]", "value": 21.38, "unit": "mm"},
      {"measurement": "DDA", "setting": "P. acnes PRP-007; P. acnes PRP-007, 200 μg per disc", "value": 47.32, "unit": "mm"},
      {"measurement": "DDA + salt", "setting": "P. acnes PRP-007; P. acnes PRP-007, 200 μg per disc, sodium chloride 100 mM", "value": 42.96, "unit": "mm"},
      {"measurement": "DDA + lipid", "setting": "P. acnes PRP-007; P. acnes PRP-007, 200 μg per disc, triolein 1% v/v", "value": 44.82, "unit": "mm"},
      {"measurement": "DDA", "setting": "P. acnes PRP-068; [5]", "value": 25.59, "unit": "mm"},
      {"measurement": "DDA", "setting": "P. acnes PRP-068; P. acnes PRP-068, 200 μg per disc", "value": 48.87, "unit": "mm"},
      {"measurement": "DDA + salt", "setting": "P. acnes PRP-068; P. acnes PRP-068, 200 μg per disc, sodium chloride 100 mM", "value": 46.69, "unit": "mm"},
      {"measurement": "DDA + lipid", "setting": "P. acnes PRP-068; P. acnes PRP-068, 200 μg per disc, triolein 1% v/v", "value": 44.51, "unit": "mm"},
      {"measurement": "DDA", "setting": "P. acnes PRP-002; [6]", "value": 31.76, "unit": "mm"},
      {"measurement": "DDA", "setting": "P. acnes PRP-002; P. acnes PRP-002, 200 μg per disc", "value": 49.49, "unit": "mm"},
      {"measurement": "DDA + salt", "setting": "P. acnes PRP-002; P. acnes PRP-002, 200 μg per disc, sodium chloride 100 mM", "value": 51.36, "unit": "mm"},
      {"measurement": "DDA + lipid", "setting": "P. acnes PRP-002; P. acnes PRP-002, 200 μg per disc, triolein 1% v/v", "value": 48.25, "unit": "mm"},
      {"measurement": "DDA", "setting": "P. acnes PRP-010; [7]", "value": 26.82, "unit": "mm"},
      {"measurement": "DDA", "setting": "P. acnes PRP-010; P. acnes PRP-010, 200 μg per disc", "value": 46.69, "unit": "mm"},
      {"measurement": "DDA + salt", "setting": "P. acnes PRP-010; P. acnes PRP-010, 200 μg per disc, sodium chloride 100 mM", "value": 46.07, "unit": "mm"},
      {"measurement": "DDA + lipid", "setting": "P. acnes PRP-010; P. acnes PRP-010, 200 μg per disc, triolein 1% v/v", "value": 39.84, "unit": "mm"},
      {"measurement": "MBC", "setting": "P. acnes NCTC 737", "value": 62.5, "unit": "µg/mL"},
      {"measurement": "MIC/MBC ratio", "setting": "P. acnes NCTC 737", "value": 0.25},
      {"measurement": "DDA", "setting": "[1]", "value": 0.0, "unit": "mm"},
      {"measurement": "SDDA area increase", "setting": "C. xerosis NCTC 11861", "value": 145.4, "unit": "%"},
      {"measurement": "SDDA increase", "setting": "C. xerosis NCTC 11861", "value": 6.6, "unit": "mm"},
      {"measurement": "SDDA with TCC", "setting": "C. xerosis NCTC 11861; 200 μg DOSS + 200 μg TCC on one disc", "value": 18.25, "unit": "mm"},
      {"measurement": "DDA", "setting": "C. xerosis NCTC 11861", "value": 0.0, "unit": "mm"}
    ]},
    {"molecule": "O=C(Nc1ccc(Cl)cc1)Nc1ccc(Cl)c(Cl)c1", "note": "[TCC, N-(4-chlorophenyl)-N′-(3,4-dichlorophenyl) urea]", "values": [
      {"measurement": "DDA", "setting": "P. acnes PRP-008; [2]", "value": 14.80, "unit": "mm"},
      {"measurement": "DDA", "setting": "P. acnes PRP-039", "value": 18.91, "unit": "mm"},
      {"measurement": "DDA", "setting": "P. acnes PRP-046; [3]", "value": 20.25, "unit": "mm"},
      {"measurement": "DDA", "setting": "P. acnes PRP-007; [4]", "value": 13.87, "unit": "mm"},
      {"measurement": "DDA", "setting": "P. acnes PRP-068; [5]", "value": 22.30, "unit": "mm"},
      {"measurement": "DDA", "setting": "P. acnes PRP-002; [6]", "value": 34.22, "unit": "mm"},
      {"measurement": "DDA", "setting": "P. acnes PRP-010; [7]", "value": 22.81, "unit": "mm"},
      {"measurement": "MBC", "setting": "P. acnes NCTC 737; Cutibacterium acnes, NCTC737, read-out: MBC", "value": 31.2, "unit": "µg/mL"},
      {"measurement": "DDA", "setting": "[1]", "value": 0.0, "unit": "mm"},
      {"measurement": "DDA", "setting": "C. xerosis NCTC 11861", "value": 11.65, "unit": "mm"}
    ]}
  ]
}
